This is an account of results in patent US20040053345A1, “Marker for probing the therapeutic efficacy of drugs” (priority 2002, published 2004).

“Also recorded” adds a separate entry of the source.

Assay [1] concerns estrogen receptor (ER) transcription activity. Put plainly: Reporter gene assay with ERE-Luc in menin-transfected cells in the presence of tamoxifen. The format is cell-based, human. The note with it: MCF-7 cells co-transfected with menin expression vector and ERE-Luc; 1 μM tamoxifen; 24 hours. Background: In a reporter assay the amount or activity of a reporter protein is the signal.
Description: The cells were cultured in DMEM (ICN) medium to which 10% fetal calf serum (ICN) was supplemented.
Full-length menin cDNA was amplified by RT-PCR, and inserted into an expression vector, pcDNA3 (Invitrogen). The menin cDNA was identified by sequencing. The mutation (569delC) was introduced with a site-directed mutagenesis kit (Promega) to produce a variant menin.
The menin expression vector and the reporter gene (ERE-Luc) were co-transfected into MCF-7 cells according to the liposome method. Similarly, the menin expression vector, CMV-ERA and the reporter gene (ERE-Luc) were co-transfected. into COS-7 cells according to the liposome method. After culturing for 24 hours, the proteins were extracted from cells and assayed for their luciferase activity. The extracted proteins were measured for their protein concentration and β-galactosidase activity wherein β-galactosidase was co-transfected and the introduction efficiency was calibrated. Similar experiments were carried out with addition of 1 μM tamoxifen to the same system.

The subject of assay [2] is breast cancer. Nature of the assay: Menin expression in breast cancer tissues (immunohistological staining) versus recurrence under tamoxifen. The format is in vivo, human. Here is the method:
Thin slices (4 μm) were prepared from breast cancer tissues embedded with paraffin. After removing paraffin, the microwave treatment was carried out (5 min×3) in citrate buffer. After cooling at room temperature, the endogenous peroxidase activity was inhibited using an aqueous 0.3% hydrogen peroxide solution. Next, blocking was performed with 6 drops of 5% bovine albumin (Sigma) for one hour, and then the anti-menin antibody (Santa Cruz) (first antibody capable of immunohistological staining) was reacted overnight (8 hours). After washing, the second antibody and 6 drops of Envision+ (Dako) wherein HRP was conjugated with polymers were reacted for one hour.
After 100 mg of a coloring agent, DAB (Dojindo), was thoroughly mixed in 150 ml of PBS, the slice was immersed in a solution containing 75 μl of 30% hydrogen peroxide (0.5 μl/ml) for 1 min, and immediately immersed into and washed with tap water. After the dehydration treatment, the slice was enclosed with a cover glass, and observed by a microscopy. The specimen where menin-positive cells with brown-colored nuclei were 50% or more of total cells was determined to be menin-positive.

The test system of assay [3] is breast cancer. The note with it: ER-positive patients, tamoxifen administered for 5 years; cited from earlier work.

Take `CC/C(=C(\c1ccccc1)c1ccc(OCCN(C)C)cc1)c1ccccc1` [tamoxifen]: the “inhibition of luciferase activity (ER transcription activity)” value in assay [1] was “not inhibited; also recorded: no suppressive effect”. Besides, the cancer recurrence is on record as 4 cases in assay [2] (5 menin-positive cases, tamoxifen administered in 3 cases) and “no recurrence” in assay [2] (menin-negative patient cases (3 of 10) administered tamoxifen). In assay [3], the “recurrence rate relative to that in non-administered patients” value is 50%.
